Consider 13 molecules from ChEMBL document CHEMBL4831506, “Discovery of novel trimethoxyphenylbenzo[d]oxazoles as dual tubulin/PDE4 inhibitors capable of inducing apoptosis at G2/M phase arrest in glioma and lung cancer cells” (Eur J Med Chem, 2021).

Each structure is given as a SMILES string. Some results are limits rather than exact numbers.

The subject of assay [1] is U-251. The experiment in a line: Antiproliferative activity against human U-251 cells after 48 hrs by MTT assay. The assay is classed as functional, cell-based. The note with it: U-251, 48 h. For orientation: Formazan colour is commonly taken as a measure of viable cells.
Assay [2] deals with A549. In words: Antiproliferative activity against human A549 cells after 48 hrs by MTT assay. The assay is classed as functional, cell-based. The conditions noted are these: A549, 48 h.
Assay [3] relates to NCI-H460. In words: Antiproliferative activity against human NCI-H460 cells after 48 hrs by MTT assay. The conditions noted are these: NCI-H460, 48 h. The assay is classed as functional, cell-based.
Assay [4] relates to MCF7. The experiment in a line: Antiproliferative activity against human MCF7 cells after 48 hrs by MTT assay. The assay is classed as functional, cell-based. The note with it: MCF7, 48 h.
The subject of assay [5] is A549. In words: Cell cycle arrest in human A549 cells assessed as G0/G1 phase at 500 nM incubated for 24 hrs by propidium iodide staining based flow cytometry analysis (reference value: 79.14%). The assay is classed as functional. Background: In flow cytometry, cells or beads pass a laser one at a time.
For assay [6], the system named is A549. The experiment in a line: Cell cycle arrest in human A549 cells assessed as G2/M phase at 500 nM measured after 24 hrs by propidium iodide staining based flow cytometry analysis (reference value: 6.08%). The assay is classed as functional.
In assay [7] the test system is A549. The experiment in a line: Cell cycle arrest in human A549 cells assessed as S phase at 500 nM measured after 24 hrs by propidium iodide staining based flow cytometry analysis (reference value: 14.78%). The assay is classed as functional.
Assay [8] concerns U-251. The experiment in a line: Cell cycle arrest in human U-251 cells assessed as G0/G1 phase at 200 nM measured after 24 hrs by propidium iodide staining based flow cytometry analysis (reference value: 67.34%). The assay is classed as functional.
Assay [9] concerns U-251. The experiment in a line: Cell cycle arrest in human U-251 cells assessed as G2/M phase at 200 nM measured after 24 hrs by propidium iodide staining based flow cytometry analysis (reference value: 14.43%). The assay is classed as functional.
Assay [10] has as its system U-251. In words: Cell cycle arrest in human U-251 cells assessed as S phase at 200 nM measured after 24 hrs by propidium iodide staining based flow cytometry analysis (reference value: 18.23%). The assay is classed as functional.
The subject of assay [11] is A549. The experiment in a line: Induction of apoptosis in human A549 cells assessed as increase in viable cells at 500 nM measured after 24 hrs by PI/FITC analysis (reference value: 98.4%). The assay is classed as functional.
Assay [12] deals with A549. In words: Induction of apoptosis in human A549 cells assessed as increase in early apoptotic cells at 500 nM measured after 24 hrs by PI/FITC analysis (reference value: 0.955%). The assay is classed as functional.
The test system of assay [13] is A549. The experiment in a line: Induction of apoptosis in human A549 cells assessed as increase in late apoptotic cells at 500 nM measured after 24 hrs by PI/FITC analysis (reference value: 0.955%). The assay is classed as functional.
For assay [14], the system named is A549. The experiment in a line: Induction of apoptosis in human A549 cells assessed as increase in necrotic cells at 500 nM measured after 24 hrs by PI/FITC analysis (reference value: 0.365%). The assay is classed as functional.
In assay [15] the test system is U-251. In words: Induction of apoptosis in human U-251 cells assessed as increase in viable cells at 200 nM measured after 24 hrs by PI/FITC analysis (reference value: 98.3%). The assay is classed as functional.
For assay [16], the system named is U-251. The experiment in a line: Induction of apoptosis in human U-251 cells assessed as increase in early apoptotic cells at 200 nM measured after 24 hrs by PI/FITC analysis (reference value: 1.12%). The assay is classed as functional.
Assay [17] deals with U-251. The experiment in a line: Induction of apoptosis in human U-251 cells assessed as increase in late apoptotic cells at 200 nM measured after 24 hrs by PI/FITC analysis (reference value: 0.311%). The assay is classed as functional.
Assay [18] relates to U-251. The experiment in a line: Induction of apoptosis in human U-251 cells assessed as increase in necrotic cells at 200 nM measured after 24 hrs by PI/FITC analysis (reference value: 0.301%). The assay is classed as functional.
Assay [19] is filed under the species Sus scrofa. In words: Inhibition of pig brain tubulin polymerization at 10 uM by spectrometric method relative to control. The assay is classed as tissue-based.
Assay [20] addresses 3',5'-cyclic-AMP phosphodiesterase 4C (Homo sapiens, UniProt Q08493). The experiment in a line: Inhibition of PDE4 CAT (unknown origin).
Assay [21] is described as follows: (§1) Inhibition of pig brain tubulin polymerization at 1 uM by spectrometric method relative to control. The assay is classed as tissue-based, Sus scrofa.
For assay [22], the species on record is Sus scrofa. The description is as §1. The assay is classed as tissue-based.

Sequence of 3',5'-cyclic-AMP phosphodiesterase 4C (Q08493 whole entry): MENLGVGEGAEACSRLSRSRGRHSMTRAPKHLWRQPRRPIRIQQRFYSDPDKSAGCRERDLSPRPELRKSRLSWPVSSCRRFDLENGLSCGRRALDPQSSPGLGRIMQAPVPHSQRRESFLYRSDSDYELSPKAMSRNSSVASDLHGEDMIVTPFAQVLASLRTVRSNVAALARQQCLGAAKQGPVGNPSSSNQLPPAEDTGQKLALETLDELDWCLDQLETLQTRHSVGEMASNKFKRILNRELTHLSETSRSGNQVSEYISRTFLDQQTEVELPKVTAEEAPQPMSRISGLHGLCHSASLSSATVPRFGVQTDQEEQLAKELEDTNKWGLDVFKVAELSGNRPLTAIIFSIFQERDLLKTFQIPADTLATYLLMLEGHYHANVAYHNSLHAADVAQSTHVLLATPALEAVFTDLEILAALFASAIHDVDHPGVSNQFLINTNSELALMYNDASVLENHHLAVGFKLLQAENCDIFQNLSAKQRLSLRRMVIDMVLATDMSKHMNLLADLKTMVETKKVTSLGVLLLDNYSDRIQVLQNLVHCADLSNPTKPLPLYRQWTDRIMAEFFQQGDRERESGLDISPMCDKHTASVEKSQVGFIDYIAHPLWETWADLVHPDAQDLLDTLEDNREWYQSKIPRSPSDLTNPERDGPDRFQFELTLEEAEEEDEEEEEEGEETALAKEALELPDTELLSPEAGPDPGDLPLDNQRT

A word on the IC50: it is the concentration that inhibits the measured activity by half. High values mean weaker potency in that assay, low ones greater potency in that assay. `COc1ccc(C2CNC(=O)C2)cc1OC1CCCC1` (configuration not stated) [ROLIPRAM]: the IC50 in assay [1], in assay [2], in assay [3] and in assay [4] was over 100 µM each time. For the same molecule, the Activity in assay [5] amounted to 79.7%; in assay [6] it was 4.56%; in [7], 15.73%; in assay [8] it was 68.42%; in assay [9] it was 14.73%; in [10], 16.85%. In addition, the Activity in [11] stood at 98.2%; in [12], 1.34%; in [13] it was 0.291%; in [14] it was 0.216%; in assay [15], 96.4%; in assay [16], 1.96%. Further, the results for the Activity in [17] and in assay [18] were 0.865% and 0.745%, respectively.
A word on the inhibition: it is the relative decrease from the control value, in per cent. Low values mean a response near the control, high ones a response far below the control. For `COc1cc(-c2cccc3nc(-c4ccc(C)cc4)oc23)cc(OC)c1OC`, the IC50 is 3.2 µM in assay [1], 0.68 µM in [2], 1.9 µM in assay [3] and over 25 µM in assay [4]. In addition, the inhibition in assay [19] is 18%.
Take `COc1cc(-c2cccc3nc(-c4cccs4)oc23)cc(OC)c1OC`: the 50% inhibitory concentration (IC50) in assay [1] was 3 µM; in assay [2], 12.5 µM; in assay [3] it was 1.6 µM; in [4], over 25 µM; in assay [20], 0.57 µM. For the same molecule, in [19], the inhibition is 0%.
On to `COc1cc(-c2cccc3nc(-c4cccc(O)c4)oc23)cc(OC)c1OC`, for which the IC50 was 5.5 µM in [1]; 2 µM in [2]; 1.9 µM in assay [3]; over 25 µM in [4]; 5 µM in assay [21]. This molecule showed an inhibition in assay [19] of 43%.
For the molecule `COc1cc(-c2cccc3nc(-c4ccc(N)cc4)oc23)cc(OC)c1OC`, the half-maximal inhibitory concentration (IC50) in [1] was 1.04 µM; in [2] it was 0.72 µM; in [3], 0.31 µM; in assay [4], over 25 µM. The inhibition in assay [22] amounted to 11%; in assay [19] it was 36%.
On to `COc1cc(-c2cccc3nc(-c4cccc(N)c4)oc23)cc(OC)c1OC`, for which the IC50 was 2.2 µM in assay [1], 4.7 µM in assay [2], 2.6 µM in [3] and over 25 µM in assay [4]. The inhibition amounted to 14% in assay [22] and 19% in assay [19].
Regarding `COc1ccc(/C=C\c2cc(OC)c(OC)c(OC)c2)cc1O` [COMBRETASTATIN A4], the IC50 in [1] was determined as 0.13 µM; in assay [2], 0.6 µM; in [3], 0.076 µM; in [4], 0.42 µM. Moreover, the inhibition was 52% in assay [22] and 94% in assay [19]. Also, the Activity in [5] was found to be 37.63%; in assay [6] it was 40.07%; in assay [7] it was 22.31%; in assay [8] it was 34.64%; in assay [9], 42.9%; in assay [10], 22.47%. The Activity in [11] is recorded as 77.9%; in [12] it was 10.1%; in assay [14], 0.412%; in assay [15], 92.1%; in assay [16], 4.02%; in assay [17], 11.9%. In addition, the Activity in assay [18] is 1.96%.
Take `COc1cc(-c2cccc3nc(-c4ccco4)oc23)cc(OC)c1OC`: the IC50 in [1] is 10.6 µM; in assay [2], 10.3 µM; in assay [3], 2.6 µM; in assay [4], over 25 µM; in assay [20], 3.3 µM. Further, in [19], the inhibition was 0%.
As to `COc1cc(-c2cccc3nc(-c4cccc(C)c4)oc23)cc(OC)c1OC`, the concentration for half-maximal inhibition (IC50) in [1] was over 25 µM; in assay [2] it was 16.7 µM; in assay [3], over 25 µM; in assay [4], over 25 µM.
On to `COc1cc(-c2cccc3oc(-c4ccccc4)nc23)cc(OC)c1OC`, for which the IC50 was over 25 µM in [1], over 25 µM in [2], 9 µM in assay [3] and over 25 µM in assay [4].
`COc1cc(-c2cccc3nc(-c4ccc(Cl)cc4)oc23)cc(OC)c1OC`: the IC50 in assay [1] was 1.6 µM; in assay [2] it was 5.6 µM; in assay [3] it was over 25 µM; in [4] it was over 25 µM.
On to `COc1cc(-c2cccc3nc(-c4cccc(Br)c4)oc23)cc(OC)c1OC`, for which the IC50 was 6.8 µM in [1], 2.1 µM in [2], 3.8 µM in assay [3] and over 25 µM in assay [4].
For `COc1cccc(-c2nc3cccc(-c4cc(OC)c(OC)c(OC)c4)c3o2)c1`, in that order: over 25 µM, 3.5 µM, over 25 µM and over 25 µM.
